From patent US9212139B2, “Aryl substituted indoles and their use as blockers of sodium channels” (Purdue Pharma, L.P., priority 2010, dated 2015)
Like-named read-outs stand apart in the source and are kept apart here.

Key:
[1] = molecular target: human Nav1.7 (Homo sapiens (Human), UniProt Q15858); assay: FLIPR or FLIPR TETRA sodium dye assay with KCl and test article pre-incubation; format: cell-based
Description: For dominant selection of the Nav1.7-expressing clones, the expression plasmid co-expressed the neomycin resistance gene. […] Recombinant beta and gamma subunits were not introduced into this cell line. Additional cell lines expressing recombinant Nav1.7 cloned from other species can also be used, alone or in combination with various beta subunits, gamma subunits or chaperones.
Cell maintenance: Unless otherwise noted, cell culture reagents were purchased from Mediatech of Herndon, Va. The recombinant Nav1.7/HEK293 cells were routinely cultured in growth medium consisting of Dulbecco's […] containing 10% fetal bovine serum (FBS, Hyclone, Thermo Fisher Scientific, Logan, Utah), 100 U/mL penicillin, […], 2-4 mM L-glutamine, and […]. For natural, non-recombinant cell lines, the selective antibiotic was omitted, and additional media formulations can be applied as needed.
The intensity of this emission, but not the wavelength range, is increased when the dye is exposed to Na^+ ions, which it can bind with partial selectivity. Cells expressing Nav1.7 or other sodium channels were loaded with the CoroNa™ Green dye immediately in advance of the fluorescence assay, and then, after agonist stimulation, the mobilization of Na^+ ions was detected as the Na^+ ions flowed from the extracellular fluid into the cytoplasm through the activated sodium channel pores. The dye was stored in the dark as a lyophilized powder, and then an aliquot was dissolved immediately before the cell loading procedure, according to the instructions of the manufacturer to a stock concentration of 10 mM in DMSO. It was then diluted in the assay buffer to a 4× concentrated working solution, so that the final concentration of dye in the cell loading buffer was 5 μM.
These scorpion toxins inhibit the fast inactivation of their cognate target channels. Stock solutions of the agonists were prepared to 40 mM in DMSO (veratridine) and 1 mg/mL in dH2O (scorpion venom), and then diluted to make a 4× or 2× stock (depending on the particular assay) in assay buffer, the final concentration being 100 μM (veratridine) and 10 μg/mL (scorpion venom). Both of the agonists were purchased from Sigma Aldrich, St. Louis, Mo.
Test Compounds: Test compounds were dissolved in DMSO to yield 10 mM stock solutions. […] If a particular test article appeared to be especially potent, then the concentration curve was adjusted, e.g., to 10-fold lower concentrations, in order to perform the dose-response in a more relevant concentration range. Compound dilutions were added during the dye-loading and pre-stimulation step, and then again during the fluorescence assay, early in the kinetic read.
Data Analysis: The data were analyzed according to methods known to those skilled in the art or using the GraphPad® Prism 4.0 Program (available from GraphPad Software, San Diego, Calif.) to determine the IC50 value for the test article. At least one standard reference compound was evaluated during each experiment.
FLIPR® or FLIPR^TETRA® sodium dye assay with KCl and test article pre-incubation: Cells were prepared by plating the recombinant HEK293 cells or other host cells expressing either recombinant or non-recombinant, native, Nav1.7 alpha subunit, alone or in combination with various beta and gamma subunits at a density of ˜40,000 cells/well into a 96-well black, clear-bottom, PDL-coated plate. The assay can be adapted to 384-well or 1,536-well format, if desired, using proportionately less cells and media. […] For counter-screens of other voltage-gated sodium channels, the procedure was very similar, though optimal densities of cells, media and subsequent assay components can be fine-tuned for the particular cell line or isoform.

[2] = molecular target: hNav1.7 (Homo sapiens (Human), UniProt Q15858); assay: Electrophysiology (EP) assay, whole-cell patch clamp; format: cell-based; settings: read-out: EP Nav1.7 Ki
Description: Cells: The hNav1.7 expressing HEK-293 cells were plated on 35 mm culture dishes pre-coated with poly-D-lysine in standard DMEM culture media (Mediatech, Inc., Herndon, Va.) and incubated in a 5% CO2 incubator at 37° C. Cultured cells were used approximately 12-48 hours after plating.
Electrophysiology: On the day of experimentation, the 35 mm dish was placed on the stage of an inverted microscope equipped with a perfusion system that continuously perfuses the culture dish with fresh recording media. A gravity driven superfusion system was used to apply test solutions directly to the cell under evaluation. This system consists of an array of glass pipette glass connected to a motorized horizontal translator. The outlet of the shooter was positioned approximately 100 μm from the cell of interest.
Gigaseals were formed and the whole-cell configuration was established in voltage clamp mode, and membrane currents generated by hNav1.7 were recorded in gap-free mode. […] Signals were sampled at 50 kHz and low pass filtered at 3 kHz.
The voltage clamp protocol to examine hNav1.7 currents was as follows. First, the standard current-voltage relationship was tested by pulsing the cell from the holding voltage (Vh) of −120 mV by a series of 5 msec long square-shaped test pulses incrementing in +10 mV steps over the membrane voltage range of −90 mV to +60 mV at the pace of stimulation of 0.5 Hz. This procedure determines the voltage that elicits the maximal current (Vmax). […] This procedure determines the voltage of full inactivation (Vfull). Third, the cell was repeatedly stimulated with the following protocol, first in the absence of the test compound then in its presence. The protocol consisted of depolarizing the cell from the holding potential of −120 mV to the Vfull value for 4.5 seconds then repolarizing the cell to the holding potential for 10 ms before applying the test pulse to the Vmax for 5 ms. The amount of inhibition produced by the test compound was determined by comparing the current amplitude elicited by the test pulse in the absence and presence of the compound.
Vehicle solution used to establish base line was also contacting 0.3% DMSO.
Data analysis: Data was analyzed off-line using Clampfit software (pClamp, v. 8; Axon Instruments) and graphed using GraphPad Prizm (v. 4.0) software.

[3] = sodium dye assay with KCl, recombinant human Nav1.7 in HEK293 cells, value ± SEM
[4] = whole-cell patch clamp, hNav1.7 expressing HEK-293 cells
[5] = read-out: FLIPR Nav1.7 IC50 (μM) ± SEM

Sequence of hNav1.7 (Q15858 other isoform, or with tags, fused parts or gaps): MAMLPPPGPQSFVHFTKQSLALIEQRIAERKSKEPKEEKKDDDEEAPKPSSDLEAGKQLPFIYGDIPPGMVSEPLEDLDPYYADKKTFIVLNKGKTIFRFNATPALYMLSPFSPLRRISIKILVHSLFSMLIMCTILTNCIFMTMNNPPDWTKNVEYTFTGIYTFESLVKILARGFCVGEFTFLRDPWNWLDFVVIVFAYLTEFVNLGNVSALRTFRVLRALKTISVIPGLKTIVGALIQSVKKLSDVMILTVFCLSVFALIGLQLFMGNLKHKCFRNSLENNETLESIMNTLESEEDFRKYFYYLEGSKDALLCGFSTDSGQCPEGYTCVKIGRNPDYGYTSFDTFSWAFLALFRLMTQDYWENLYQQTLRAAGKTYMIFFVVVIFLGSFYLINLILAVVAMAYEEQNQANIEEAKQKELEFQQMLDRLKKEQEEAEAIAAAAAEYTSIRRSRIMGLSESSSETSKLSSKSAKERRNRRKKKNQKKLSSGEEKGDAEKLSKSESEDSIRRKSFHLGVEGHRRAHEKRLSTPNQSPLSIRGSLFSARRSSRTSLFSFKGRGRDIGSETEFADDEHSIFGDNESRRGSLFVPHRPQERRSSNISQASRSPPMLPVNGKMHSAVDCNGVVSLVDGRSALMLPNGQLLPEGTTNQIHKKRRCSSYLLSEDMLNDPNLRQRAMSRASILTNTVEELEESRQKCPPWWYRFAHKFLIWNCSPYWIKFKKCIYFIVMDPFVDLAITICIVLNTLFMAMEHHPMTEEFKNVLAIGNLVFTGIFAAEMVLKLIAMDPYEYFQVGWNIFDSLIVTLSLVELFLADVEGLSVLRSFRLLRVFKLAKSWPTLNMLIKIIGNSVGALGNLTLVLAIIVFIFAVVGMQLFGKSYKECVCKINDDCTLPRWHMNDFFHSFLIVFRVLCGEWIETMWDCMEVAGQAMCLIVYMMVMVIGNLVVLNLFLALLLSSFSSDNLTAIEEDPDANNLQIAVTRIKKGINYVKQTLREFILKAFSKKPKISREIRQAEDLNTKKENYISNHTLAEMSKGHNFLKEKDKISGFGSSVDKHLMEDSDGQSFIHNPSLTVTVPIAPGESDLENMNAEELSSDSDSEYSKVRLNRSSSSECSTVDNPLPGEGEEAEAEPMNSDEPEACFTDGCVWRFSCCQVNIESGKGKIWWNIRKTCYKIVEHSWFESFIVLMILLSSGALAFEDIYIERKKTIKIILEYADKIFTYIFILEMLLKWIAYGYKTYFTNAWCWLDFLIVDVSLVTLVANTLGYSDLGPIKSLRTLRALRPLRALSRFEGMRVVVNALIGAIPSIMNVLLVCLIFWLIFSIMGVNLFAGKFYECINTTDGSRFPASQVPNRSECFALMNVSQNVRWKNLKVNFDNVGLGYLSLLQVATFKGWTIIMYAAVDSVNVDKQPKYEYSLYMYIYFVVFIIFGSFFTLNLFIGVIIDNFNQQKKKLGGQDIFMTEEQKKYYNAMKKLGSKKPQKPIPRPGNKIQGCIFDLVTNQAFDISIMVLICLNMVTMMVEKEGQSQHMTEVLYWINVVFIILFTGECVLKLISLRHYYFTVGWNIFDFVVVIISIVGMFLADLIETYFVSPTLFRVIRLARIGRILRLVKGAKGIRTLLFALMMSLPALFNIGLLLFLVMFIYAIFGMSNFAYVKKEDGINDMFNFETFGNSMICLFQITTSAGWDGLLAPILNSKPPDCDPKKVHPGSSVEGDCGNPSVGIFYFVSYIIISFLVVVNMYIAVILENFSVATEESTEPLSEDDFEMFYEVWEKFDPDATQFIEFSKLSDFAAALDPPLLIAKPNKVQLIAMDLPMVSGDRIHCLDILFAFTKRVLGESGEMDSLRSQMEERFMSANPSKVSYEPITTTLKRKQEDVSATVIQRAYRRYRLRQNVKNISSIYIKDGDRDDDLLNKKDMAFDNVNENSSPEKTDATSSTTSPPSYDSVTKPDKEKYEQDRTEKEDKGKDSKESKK
Sequence of human Nav1.7 (Q15858 other isoform, or with tags, fused parts or gaps): as above

SMILES	IC50 [1, 3]	Ki [2, 4]	IC50 [1, 5]	Ki [2]
NC(=O)C(N)Cc1c[nH]c2ccc(-c3ccc(Oc4ccccc4)cc3)cc12 (stereo not shown) [Compound 8, 2-Amino-3-[5-(4-phenoxyphenyl)-1H-indol-3-yl]propionamide]	0.399 ± 0.024 µM	670 nM		
NC(CO)Cc1c[nH]c2ccc(-c3ccc(Oc4ccccc4)cc3)cc12 (stereo not shown) [Compound 10, 2-Amino-3-[5-(4-phenoxyphenyl)-1H-indol-3-yl]propan-1-ol]			0.296 ± 0.087 µM	360 nM
NC(CO)Cc1c[nH]c2c(-c3ccc(Oc4ccccc4)cc3)cccc12 (stereo not shown) [Compound 22, 2-Amino-3-[7-(4-phenoxyphenyl)-1H-indol-3-yl]propan-1-ol]			0.151 ± 0.016 µM	830 nM
NC(CO)Cc1cn(-c2ccc(Oc3ccccc3)cc2)c2ccccc12 (stereo not shown) [Compound 34, 2-Amino-3-[1-(4-phenoxyphenyl)-1H-indol-3-yl]propan-1-ol]	0.389 ± 0.081 µM	260 nM		
NC(=O)C(N)Cc1cn(-c2ccc(Oc3ccccc3)cc2)c2ccccc12 (stereo not shown) [Compound 35, 2-Amino-3-[1-(4-phenoxyphenyl)-1H-indol-3-yl]propionamide]	0.278 ± 0.061 µM	40 nM		
N#Cc1cc(Oc2ccc(-n3cc(C[C@@H](N)CO)c4ccccc43)cc2)ccc1C(F)(F)F [Compound 44, (R)-5-{4-[3-(2-Amino-3-hydroxypropyl)-1H-indol-1-yl]phenoxy}-2-(trifluoromethyl)benzonitrile]	0.304 ± 0.046 µM	290 nM		
CN(C)CCc1cn(-c2ccc(Oc3ccccc3)cc2)c2ccc(C[C@H](N)CO)cc12 [Compound 48, (S)-2-Amino-3-[3-(2-(dimethylamino)ethyl)-1-(4-phenoxyphenyl)-1H-indol-5-yl]propan-1-ol]	3.82 ± 1.02 µM	1310 nM		
N#Cc1cc(Oc2ccc(-n3cc(C[C@H](O)CO)c4ccccc43)cc2)ccc1C(F)(F)F [Compound 54, (S)-5-{4-[3-(2,3-Dihydroxypropyl)-1H-indol-1-yl]phenoxy}-2-(trifluoromethyl)benzonitrile]	0.21 ± 0.035 µM	70 nM		
COC(=O)c1ccc2c(C(O)C(N)=O)cn(-c3ccc(Oc4ccc(C(F)(F)F)c(C#N)c4)cc3)c2c1 (stereo not shown) [Compound 65, Methyl 3-(2-amino-1-hydroxy-2-oxoethyl)-1-(4-(3-cyano-4-(trifluoromethyl)phenoxy)phenyl)-1H-indole-6-carboxylate]	0.536 ± 0.129 µM	1910 nM		
N#Cc1cc(Oc2ccc(-n3cc(C(O)C(=O)NC[C@H](O)CO)c4ccccc43)cc2)ccc1C(F)(F)F (stereo partly drawn) [Compound 69, 2-(1-(4-(3-Cyano-4-(trifluoromethyl)phenoxy)phenyl)-1H-indol-3-yl)-N—((S)-2,3-dihydroxypropyl)-2-hydroxyacetamide]	0.732 ± 0.113 µM	2670 nM		
OC[C@@H](O)Cc1cn(C[C@H](O)CO)c2ccc(-c3ccc(Oc4ccc(F)cc4)cc3)cc12 [Compound 74, (2S,2′S)-3,3′-(5-(4-(4-Fluorophenoxy)phenyl)-1H-indole-1,3-diyl)bis(propane-1,2-diol)]	0.5 ± 0.091 µM	920 nM		
NC(=O)c1cccc2c1c(C[C@H](O)CO)cn2-c1ccc(Oc2ccc(F)cc2)cc1 [Compound 122, (S)-3-(2,3-Dihydroxypropyl)-1-(4-(4-fluorophenoxy)phenyl)-1H-indole-4-carboxamide]	0.222 ± 0.036 µM	300 nM		
NC(=O)c1nn(-c2ccc(Oc3ccc(C(F)(F)F)cn3)cc2)c2ccccc12 [Compound 155, 1-(4-((5-(Trifluoromethyl)pyridin-2-yl)oxy)phenyl)-1H-indazole-3-carboxamide]			0.362 ± 0.06 µM	250 nM
N#Cc1ccc(Oc2ccc(-n3cc(C[C@H](O)CO)c4ncccc43)cc2)cc1 [Compound 175, (S)-4-(4-(3-(2,3-Dihydroxypropyl)-1H-pyrrolo[3,2-b]pyridin-1-yl)phenoxy)benzonitrile]	0.549 ± 0.197 µM	170 nM		
CCN(CC)CCn1cc(C(O)C(N)=O)c2cc(-c3ccc(Oc4ccc(F)cc4)cc3)ccc21 (stereo not shown) [Compound 179, 2-(1-(2-(Diethylamino)ethyl)-5-(4-(4-fluorophenoxy)phenyl)-1H-indol-3-yl)-2-hydroxyacetamide]	0.912 ± 0.079 µM	270 nM		
N#Cc1ccc(Oc2ccc(-n3cc(C(O)C(N)=O)c4ccccc43)cc2)cc1C(F)(F)F (stereo not shown) [Compound 193, 2-(1-(4-(4-Cyano-3-(trifluoromethyl)phenoxy)phenyl)-1H-indol-3-yl)-2-hydroxyacetamide]			0.414 ± 0.026 µM	
NC(=O)C(O)c1cn(-c2ccc(Oc3ccc(C(F)(F)F)cn3)cc2)c2ccccc12 (stereo not shown) [Compound 195, 2-Hydroxy-2-(1-(4-((5-(trifluoromethyl)pyridin-2-yl)oxy)phenyl)-1H-indol-3-yl)acetamide]	0.276 ± 0.011 µM			
N[C@H](CO)Cc1cn(-c2ccc(Oc3ccc(C(F)(F)F)cn3)cc2)c2ccccc12 [Compound 196, (S)-2-Amino-3-(1-(4-((5-(trifluoromethyl)pyridin-2-yl)oxy)phenyl)-1H-indol-3-yl)propan-1-ol]	0.34 ± 0.023 µM			
OCCn1cc(C[C@H](O)CO)c2cc(-c3ccc(Oc4ccc(F)cc4)cc3)ccc21 [Compound 200, (S)-3-(5-(4-(4-fluorophenoxy)phenyl)-1-(2-hydroxyethyl)-1H-indol-3-yl)propane-1,2-diol]	0.273 ± 0.061 µM			
